Measurements reported in PubChem BioAssay (NCI).
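A five-concentration, 48-hour dose response in 96-well plates underlies each endpoint, interpolated linearly between surrounding concentrations. GI50 is the concentration that inhibits growth by half. Definition used: TGI = concentration required for complete inhibition of growth.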

Experiments:
Assay in all cases: inhibition of tumour cell growth, NCI panel, 48 h
[1] = test system: HCT-116 colon
[2] = test system: DLD-1 colon
[3] = test system: XF 498 CNS
[4] = test system: MOLT-4 leukemia
[5] = test system: SK-OV-3 ovarian
[6] = test system: LOX IMVI melanoma
[7] = test system: SK-MEL-2 melanoma
[8] = test system: HT29 colon
[9] = test system: CAKI-1 renal
[10] = test system: OVCAR-5 ovarian
[11] = test system: 786-0 renal
[12] = test system: M14 melanoma
[13] = test system: NCI-H226 lung
[14] = test system: IGROV1 ovarian
[15] = test system: DMS 273 small cell lung
[16] = test system: HCT-15 colon
[17] = test system: HL-60(TB) leukemia
[18] = test system: A549 NSCLC
[19] = test system: SK-MEL-5 melanoma
[20] = test system: LXFL 529 NSCLC
[21] = test system: MALME-3M melanoma
[22] = test system: RXF 393 renal
[23] = test system: EKVX NSCLC
[24] = test system: HOP-62 NSCLC
[25] = test system: UACC-257 melanoma
[26] = test system: NCI-H522 lung
[27] = test system: SW-620 colon
[28] = test system: CCRF-CEM leukemia
[29] = test system: SF-539 CNS
[30] = test system: TK-10 renal
[31] = test system: NCI-H460 lung
[32] = test system: HCC-2998 colon
[33] = test system: DMS 114 small cell lung
[34] = test system: OVCAR-8 ovarian
[35] = test system: RPMI-8226 leukemia
[36] = test system: SNB-75 CNS
[37] = test system: SNB-78 CNS
[38] = test system: OVCAR-4 ovarian
[39] = test system: COLO 205 colon
[40] = test system: M19-MEL melanoma
[41] = test system: A498 renal
[42] = test system: SF-268 CNS
[43] = test system: UACC-62 melanoma
[44] = test system: NCI-H23 lung
[45] = test system: HOP-18 NSCLC
[46] = test system: U251 CNS
[47] = test system: SNB-19 CNS
[48] = test system: SK-MEL-28 melanoma
[49] = test system: SR leukemia
[50] = test system: K-562 leukemia
[51] = test system: KM12 colon
[52] = test system: ACHN renal
[53] = test system: HOP-92 NSCLC
[54] = test system: OVCAR-3 ovarian
[55] = test system: UO-31 renal
[56] = test system: SF-295 CNS
[57] = test system: KM20L2 colon
[58] = test system: SN12C renal

Compound `CCCCCCCCCCCC1CC(=O)NCCCN(C)CCCCN(C)CCCN1C` (centres undefined) has a TGI [1] of 2.89 µM, a TGI [2] of 3 µM and a TGI [3] of 3.08 µM. It also gave a TGI [4] of 7.73 µM, a TGI [5] of 3.2 µM and a TGI [6] of 2.84 µM. It also gave a TGI [7] of 3.16 µM, a TGI [8] of 2.97 µM and a TGI [9] of 3.54 µM. The TGI [10] was 3.3 µM, the TGI [11] was 2.89 µM and the TGI [12] was 3.24 µM. The TGI [13] was 3.43 µM, the TGI [14] was 3.22 µM and the TGI [15] was 2.61 µM. For the same compound, the TGI [16] was 3 µM, the TGI [17] was 5.32 µM and the TGI [18] was 3.16 µM. It also gave a TGI [19] of 3.43 µM, a TGI [20] of 3.16 µM and a TGI [21] of 3.33 µM. For the same compound, the TGI [22] was 3.02 µM, the TGI [23] was 3.2 µM and the TGI [24] was 3.04 µM. It also gave a TGI [25] of 3.06 µM, a TGI [26] of 3.27 µM and a TGI [27] of 2.35 µM. For the same compound, the TGI [28] was 2.85 µM, the TGI [29] was 3.17 µM and the TGI [30] was 3.12 µM. It also gave a TGI [31] of 2.66 µM, a TGI [32] of 3.21 µM and a TGI [33] of 3.19 µM. It also gave a TGI [34] of 3.33 µM, a TGI [35] of 4.09 µM and a TGI [36] of 2.99 µM. It also gave a TGI [37] of 3.27 µM, a TGI [38] of 3.12 µM and a TGI [39] of 3.03 µM. It also gave a TGI [40] of 3.24 µM, a TGI [41] of 3.14 µM and a TGI [42] of 3.3 µM. The TGI [43] was 3.09 µM, the TGI [44] was 3.12 µM and the TGI [45] was 3.17 µM. For the same compound, the TGI [46] was 3.04 µM, the TGI [47] was 3.1 µM and the TGI [48] was 3.09 µM. It also gave a TGI [49] of 0.605 µM, a TGI [50] of 0.699 µM and a TGI [51] of 2.96 µM. It also gave a TGI [52] of 3.08 µM, a TGI [53] of 2.68 µM and a TGI [54] of 3.07 µM. The TGI [55] was 3.11 µM, the TGI [56] was 3.07 µM and the TGI [57] was 3.01 µM. The TGI [58] was 3.14 µM.
For `Cc1cccc(C)c1N1C(=O)C(=O)C(c2nc3ccccc3s2)/C(=N/NC(=O)NN)C1=O` (centres undefined), the TGI [1] was over 100 µM, the TGI [2] was over 100 µM and the TGI [3] was over 100 µM. For the same compound, the TGI [4] was over 100 µM, the TGI [5] was over 100 µM and the TGI [7] was over 100 µM. It also gave a TGI [8] of over 100 µM, a TGI [9] of over 100 µM and a TGI [11] of over 100 µM. For the same compound, the TGI [12] was over 100 µM, the TGI [13] was over 100 µM and the TGI [14] was over 100 µM. The TGI [15] was over 100 µM, the TGI [16] was over 100 µM and the TGI [17] was over 100 µM. It also gave a TGI [18] of over 100 µM, a TGI [19] of over 100 µM and a TGI [20] of over 100 µM. The TGI [21] was over 100 µM, the TGI [22] was over 100 µM and the TGI [23] was over 100 µM. The TGI [24] was over 100 µM, the TGI [25] was over 100 µM and the TGI [26] was over 100 µM. For the same compound, the TGI [27] was over 100 µM, the TGI [28] was over 100 µM and the TGI [29] was over 100 µM. For the same compound, the TGI [30] was over 100 µM, the TGI [31] was over 100 µM and the TGI [32] was over 100 µM. It also gave a TGI [33] of over 100 µM, a TGI [34] of over 100 µM and a TGI [36] of over 100 µM. For the same compound, the TGI [37] was over 100 µM, the TGI [38] was over 100 µM and the TGI [39] was over 100 µM. It also gave a TGI [40] of over 100 µM, a TGI [41] of over 100 µM and a TGI [42] of over 100 µM. The TGI [43] was over 100 µM, the TGI [44] was over 100 µM and the TGI [45] was over 100 µM. The TGI [46] was over 100 µM, the TGI [47] was over 100 µM and the TGI [48] was over 100 µM. The TGI [49] was over 100 µM, the TGI [51] was over 100 µM and the TGI [52] was over 100 µM. It also gave a TGI [53] of over 100 µM, a TGI [54] of over 100 µM and a TGI [55] of over 100 µM. It also gave a TGI [56] of over 100 µM, a TGI [57] of over 100 µM and a TGI [58] of over 100 µM.
With `CC(C)[O-].CC(C)[O-].O=c1cccccc1[O-].O=c1cccccc1[O-].[Ti+4]` the TGI [1] was over 100 µM, the GI50 [2] was 42 µM and the TGI [2] was over 100 µM. The GI50 [3] was 33.8 µM, the TGI [3] was 97.3 µM and the TGI [4] was over 100 µM. It also gave a TGI [5] of over 100 µM, a TGI [6] of over 100 µM and a TGI [7] of over 100 µM. For the same compound, the TGI [9] was over 100 µM, the TGI [10] was over 100 µM and the TGI [11] was 69.9 µM. It also gave a TGI [12] of over 100 µM, a TGI [13] of over 100 µM and a TGI [14] of over 100 µM. The TGI [16] was over 100 µM, the TGI [17] was over 100 µM and the TGI [18] was over 100 µM. It also gave a TGI [19] of 69.8 µM, a GI50 [20] of 31 µM and a TGI [20] of over 100 µM. It also gave a TGI [21] of 70.2 µM, a TGI [23] of over 100 µM and a GI50 [24] of over 100 µM. It also gave a TGI [24] of over 100 µM, a TGI [25] of over 100 µM and a TGI [26] of 62.8 µM. For the same compound, the TGI [27] was over 100 µM, the TGI [28] was over 100 µM and the GI50 [29] was 29.3 µM. It also gave a TGI [29] of over 100 µM, a TGI [30] of over 100 µM and a TGI [32] of over 100 µM. For the same compound, the TGI [34] was over 100 µM, the TGI [35] was over 100 µM and the TGI [36] was over 100 µM. It also gave a TGI [38] of over 100 µM, a TGI [39] of over 100 µM and a TGI [42] of over 100 µM. The TGI [43] was over 100 µM, the TGI [44] was over 100 µM and the GI50 [45] was over 100 µM. The TGI [45] was over 100 µM, the GI50 [46] was 28.9 µM and the TGI [46] was over 100 µM. It also gave a TGI [47] of over 100 µM, a TGI [48] of over 100 µM and a TGI [49] of over 100 µM. For the same compound, the TGI [50] was over 100 µM, the TGI [51] was 69.8 µM and the TGI [52] was over 100 µM. The TGI [53] was 90.8 µM, the TGI [54] was over 100 µM and the TGI [55] was over 100 µM. For the same compound, the TGI [56] was over 100 µM, the GI50 [57] was 46.1 µM and the TGI [57] was over 100 µM.
